According to US8309552B2, “Immunomodulating heterocyclic compounds” (Medigene AG, priority 2003, dated 2012):

The molecules below were run against T1, CD80-CD28 interaction (Homo sapiens, UniProt P33681) (assay: Homogenous Time Resolved Fluorescence (HTRF) assay, cell free). Conditions: cell free HTRF assay; concentration series 100 μM-1.7 nM; 4 hours at room temperature; read-out: Activity (EC50 in the HTRF assay).
T1 sequence (P33681 35-242 limits assumed): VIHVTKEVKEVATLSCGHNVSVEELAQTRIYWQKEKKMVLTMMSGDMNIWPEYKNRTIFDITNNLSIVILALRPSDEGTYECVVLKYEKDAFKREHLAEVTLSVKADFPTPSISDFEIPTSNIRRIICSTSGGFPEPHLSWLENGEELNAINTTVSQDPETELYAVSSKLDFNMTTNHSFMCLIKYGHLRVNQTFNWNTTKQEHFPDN
Assay type: binding
Experimental: Homogenous Time Resolved Fluorescence Assay
The examples described above were tested in a cell free Homogenous Time Resolved Fluorescence (HTRF) assay to determine their activity as inhibitors of the CD80-CD28 interaction.
In the assay, europium and allophycocyanin (APC) are associated with CD28 and CD80 indirectly (through antibody linkers) to form a complex, which brings the europium and APC into close proximity to generate a signal. The complex comprises the following six proteins: fluorescent label 1, linker antibody 1, CD28 fusion protein, CD80 fusion protein, linker antibody 2, and fluorescent label 2. The table below describes these reagents in greater detail.
On formation of the complex, europium and APC are brought into proximity and a signal is generated.
Non-specific interaction was measured by substituting a mouse Fab fragment (C215) for the CD80 mouse Fab fragment fusion protein (1.9 μg/ml). The assay was carried out in black 384 well plates in a final volume of 30 μl. Assay buffer: 50 mM Tris-HCl, 150 mM NaCl pH7.8, containing 0.1% BSA (w/v) added just prior to use.
Compounds were added to the above reagents in a concentration series ranging between 100 μM-1.7 nM. The reaction was incubated for 4 hours at room temperature. Dual measurements were made using a Wallac Victor 1420 Multilabel Counter. First measurement: excitation 340 nm, emission 665 nm, delay 50 μs, window time 200 μs. second measurement: excitation 340 nm, emission 615 nm, delay 50 μs, window time 200 μs. Counts were automatically corrected for fluorescence crossover, quenching and background. The EC50 activities of compounds tested are recorded as: EC50:*=>10 μM,**=1-10 μM,***=<1 μM.

EC50 | SMILES
< 1 µM | CN1C(C)(C)CC(NC(=O)c2ccc(-n3[nH]c4c(nnc5ccc(F)cc54)c3=O)cc2)CC1(C)C [Example 427]
< 1 µM | CC1(C)CC(NC(=O)Nc2ccc(-n3[nH]c4c(nnc5ccccc54)c3=O)cc2)CC(C)(C)N1 [Example 301]
< 1 µM | O=C(NCCc1cnc[nH]1)Nc1ccc(-n2[nH]c3c(nnc4ccccc43)c2=O)cc1 [Example 285]
< 1 µM | CCN(CC)CCNCCNC(=O)c1ccc(-n2[nH]c3c(nnc4ccccc43)c2=O)cc1 [Example 280]
> 10 µM | CC(NC(=O)Nc1ccc(-n2[nH]c3c(nnc4ccccc43)c2=O)cc1)C1CCCCC1 (centres unmarked) [Example 261]
< 1 µM | CNCCCNC(=O)c1ccc(-n2[nH]c3c(nnc4ccc(OC)cc43)c2=O)cc1 [Example 418]
< 1 µM | CCCCN(CCCC)CCCNC(=O)c1ccc(-n2[nH]c3c(nnc4ccc(F)cc43)c2=O)cc1 [Example 329]
1 to 10 µM | Cc1ccccc1CCNC(=O)c1ccc(-n2[nH]c3c(nnc4c(F)cccc43)c2=O)cc1 [Example 366]
< 1 µM | CC(C)(C)NC(=O)c1ccc(-n2[nH]c3c(nnc4c(F)cccc43)c2=O)cc1 [Example 375]
> 10 µM | O=C(Nc1ccc(-n2[nH]c3c(nnc4ccccc43)c2=O)cc1)Nc1nc2ccccc2s1 [Example 293]
1 to 10 µM | O=C(NCCc1ccc(Cl)cc1Cl)c1ccc(-n2[nH]c3c(nnc4c(F)cccc43)c2=O)cc1 [Example 370]
< 1 µM | COc1ccc(CNC(=O)c2ccc(-n3[nH]c4c(nnc5ccccc54)c3=O)cc2)cc1 [Example 240]
> 10 µM | CC(C)(C)OC(=O)N1CCC(CNC(=O)Nc2ccc(-n3[nH]c4c(nnc5ccccc54)c3=O)cc2)CC1 [Example 264]
1 to 10 µM | CC(C)C(C)NC(=O)Nc1ccc(-n2[nH]c3c(nnc4ccccc43)c2=O)cc1 (centres unmarked) [Example 263]
> 10 µM | CCCCCCCCCCCCOCCCNC(=O)c1ccc(-n2[nH]c3c(nnc4ccccc43)c2=O)cc1 [Example 273]
< 1 µM | CCCNCCNC(=O)c1ccc(-n2[nH]c3c(nnc4c(F)cccc43)c2=O)cc1 [Example 341]

EC50 | SMILES
< 1 µM | CC(Cc1c[nH]c2ccccc12)NC(=O)c1ccc(-n2[nH]c3c(nnc4c(F)cccc43)c2=O)cc1 (centres unmarked) [Example 359]
> 10 µM | O=C(NCc1cccc(F)c1)Nc1ccc(-n2[nH]c3c(nnc4ccccc43)c2=O)cc1 [Example 284]
< 1 µM | CN(C)CCCNC(=O)c1ccc(-n2[nH]c3c(nnc4c(F)cccc43)c2=O)cc1 [Example 232]
1 to 10 µM | O=C(NCCc1cccc(F)c1)c1ccc(-n2[nH]c3c(nnc4c(F)cccc43)c2=O)cc1 [Example 373]
> 10 µM | CCCCCNC(=O)c1ccc(-n2[nH]c3c(nnc4ccccc43)c2=O)cc1 [Example 251]
< 1 µM | O=C(NCCCCN1CCSCC1)c1ccc(-n2[nH]c3c(nnc4c(F)cccc43)c2=O)cc1 [Example 419]
1 to 10 µM | CC1CCCCC1NC(=O)c1ccc(-n2[nH]c3c(nnc4ccccc43)c2=O)cc1 (centres unmarked) [Example 316]
> 10 µM | CCCNCCNC(=O)c1ccc(-n2[nH]c3c(nnc4ccccc43)c2=O)cc1 [Example 269]
< 1 µM | CCCCOCCCNC(=O)c1ccc(-n2[nH]c3c(nnc4c(F)cccc43)c2=O)cc1 [Example 354]
> 10 µM | CCOC(=O)N1CCC(NC(=O)Nc2ccc(-n3[nH]c4c(nnc5ccccc54)c3=O)cc2)CC1 [Example 303]
< 1 µM | CC1(C)CC(NC(=O)c2ccc(-n3[nH]c4c(nnc5cccc(F)c54)c3=O)cc2)CC(C)(C)N1 [Example 403]
< 1 µM | NCCCCNC(=O)c1ccc(-n2[nH]c3c(nnc4c(F)cccc43)c2=O)cc1 [Example 351]
> 10 µM | COc1ccc(CNC(=O)c2ccc(-n3[nH]c4c(nnc5ccccc54)c3=O)cc2)c(OC)c1 [Example 236]
< 1 µM | CCCCN(CCCC)CCCNC(=O)c1ccc(-n2[nH]c3c(nnc4cccc(F)c43)c2=O)cc1 [Example 398]
< 1 µM | CN(C)CC(C)(C)CNC(=O)c1ccc(-n2[nH]c3c(nnc4c(F)cccc43)c2=O)cc1 [Example 420]

Same assay, conditions: cell-free HTRF, compound concentration series 100 μM-1.7 nM, 4 hours at room temperature; read-out: Activity (EC50 in the HTRF assay)

EC50 | SMILES
> 10 µM | CC(C)CCC(C)NC(=O)Nc1ccc(-n2[nH]c3c(nnc4ccccc43)c2=O)cc1 (centres unmarked) [Example 218]
< 1 µM | CC(C)NCCNC(=O)c1ccc(-n2[nH]c3c(nnc4ccccc43)c2=O)cc1 [Example 108]
< 1 µM | CC(C)NCCCNC(=O)Nc1ccc(-n2[nH]c3c(nnc4ccccc43)c2=O)cc1 [Example 148]
> 10 µM | CC(NC(=O)c1ccc(-n2[nH]c3c(nnc4ccccc43)c2=O)cc1)c1ccccc1 (centres unmarked) [Example 19]
< 1 µM | CN1CCN(CCCNC(=O)Nc2ccc(-n3[nH]c4c(nnc5ccccc54)c3=O)cc2)CC1 [Example 129]
< 1 µM | CN(C)CCNC(=O)Nc1ccc(-n2[nH]c3c(nnc4ccccc43)c2=O)cc1 [Example 130]
1 to 10 µM | CC(NC(=O)c1ccc(-n2[nH]c3c(nnc4ccccc43)c2=O)cc1)C1CCCCC1 (centres unmarked) [Example 120]
< 1 µM | CN1CCN(CCCNC(=O)c2ccc(-n3[nH]c4c(nnc5ccccc54)c3=O)cc2)CC1 [Example 10]
> 10 µM | O=C(NCCCCc1ccccc1)Nc1ccc(-n2[nH]c3c(nnc4ccccc43)c2=O)cc1 [Example 188]
< 1 µM | CC(C)(C)OC(=O)NCCCCNC(=O)c1ccc(-n2[nH]c3c(nnc4ccccc43)c2=O)cc1 [Example 91]
1 to 10 µM | CC(C)(C)CCNC(=O)c1ccc(-n2[nH]c3c(nnc4ccccc43)c2=O)cc1 [Example 85]
1 to 10 µM | CCC(C)CNC(=O)c1ccc(-n2[nH]c3c(nnc4ccccc43)c2=O)cc1 (centres unmarked) [Example 107]
< 1 µM | O=C(NCCO)Nc1ccc(-n2[nH]c3c(nnc4ccccc43)c2=O)cc1 [Example 146]
< 1 µM | CCN(CC)CCCC(C)NC(=O)c1ccc(-n2[nH]c3c(nnc4ccccc43)c2=O)cc1 (centres unmarked) [Example 81]
1 to 10 µM | CC(NC(=O)c1ccc(-n2[nH]c3c(nnc4ccccc43)c2=O)cc1)C1CCCCC1 (centres unmarked) [Example 75]
1 to 10 µM | COCC(C)NC(=O)Nc1ccc(-n2[nH]c3c(nnc4ccccc43)c2=O)cc1 (centres unmarked) [Example 174]
> 10 µM | O=C(NCCN1CCNC1=O)c1ccc(-n2[nH]c3c(nnc4ccccc43)c2=O)cc1 [Example 36]
< 1 µM | CCN(CC)CCCNC(=O)c1ccc(-n2[nH]c3c(nnc4ccccc43)c2=O)cc1 [Example 176]
< 1 µM | CCCNCCNC(=O)Nc1ccc(-n2[nH]c3c(nnc4ccccc43)c2=O)cc1 [Example 144]
< 1 µM | CC(O)CCNC(=O)c1ccc(-n2[nH]c3c(nnc4ccccc43)c2=O)cc1 (centres unmarked) [Example 29]
1 to 10 µM | O=C(Nc1ccc(N2CCCCC2)cc1)c1ccc(-n2[nH]c3c(nnc4ccccc43)c2=O)cc1 [Example 98]
> 10 µM | CC(C)(C)C1CCC(NC(=O)c2ccc(-n3[nH]c4c(nnc5ccccc54)c3=O)cc2)CC1 (centres unmarked) [Example 38]
> 10 µM | CC1C(NC(=O)Nc2ccc(-n3[nH]c4c(nnc5ccccc54)c3=O)cc2)CC2CC1C2(C)C (centres unmarked) [Example 201]
< 1 µM | CC(C)CC(C)NC(=O)c1ccc(-n2[nH]c3c(nnc4ccccc43)c2=O)cc1 (centres unmarked) [Example 55]
< 1 µM | CC1(C)CC(NC(=O)c2ccc(-n3[nH]c4c(nnc5ccccc54)c3=O)cc2)CC(C)(C)N1 [Example 103]
1 to 10 µM | COc1ccc2[nH]cc(CCNC(=O)c3ccc(-n4[nH]c5c(nnc6ccccc65)c4=O)cc3)c2c1 [Example 31]
1 to 10 µM | CC(CCCC(C)(C)O)NC(=O)c1ccc(-n2[nH]c3c(nnc4ccccc43)c2=O)cc1 (centres unmarked) [Example 99]
< 1 µM | O=C(NCCc1cccnc1)c1ccc(-n2[nH]c3c(nnc4ccccc43)c2=O)cc1 [Example 95]
> 10 µM | CCCCC(CC)CNC(=O)c1ccc(-n2[nH]c3c(nnc4ccccc43)c2=O)cc1 (centres unmarked) [Example 25]

Same assay, conditions: cell-free HTRF, concentration series 100 μM-1.7 nM, 4 hours at room temperature; read-out: Activity (EC50 in the HTRF assay)

EC50 | SMILES
< 1 µM | CC(C)(C)CNCCCCNC(=O)c1ccc(-n2[nH]c3c(nnc4c(F)cccc43)c2=O)cc1 [Example 481]
< 1 µM | C=CCN(CCCCNC(=O)c1ccc(-n2[nH]c3c(nnc4c(F)cccc43)c2=O)cc1)C1CCCC1 [Example 469]
< 1 µM | CC1CC(C)(C)C(CNC(=O)c2ccc(-n3[nH]c4c(nnc5c(F)cccc54)c3=O)cc2)C1N (centres unmarked) [Example 439]
< 1 µM | O=C(N[C@H]1CC[C@H](O)CC1)c1ccc(-n2[nH]c3c(nnc4c(F)cccc43)c2=O)cc1 [Example 501]
< 1 µM | O=C(NCCCC(F)F)c1ccc(-n2[nH]c3c(nnc4c(F)cccc43)c2=O)cc1 [Example 485]
